Experimental data from patent EP4389156A1, “RA[…] LIGAND COMPOUNDS AND PRECURSORS THEREOF” (Technische Universität München, priority 2022, dated 2024).

Key:
LNCaP cells = assay: PSMA-mediated internalization into LNCaP cells; assay type: cell-based; conditions: 1 h
Protocol: Competitive binding studies were carried out in analogy to a previously reported procedure. As a modification the non-radiolabeled standard competitor (((S)-1-carboxy-5-(4-(iodo)benzamido)pentyl)carbamoyl)-L-glutamic acid (IBA-KuE) was applied in increasing concentrations (10^-5 - 10^-11 M/well, n = 3 each) whereas the novel PSMA-binding compounds of interest were applied as ^99mTc-labeled radioligands (0.2 nM/well). In this inversed experimental approach, higher values correspond to higher affinities and are referred to as inverse IC50. Poly-L-lysine coated 24-well plates were used (n = 3). Data are given as mean ± SD. To determine the cellular uptake of the ^99mTc-labeled PSMA ligands into LNCaP cells by means of PSMA-mediated internalization at 1 h, a previously reported protocol was applied with assay concentrations of 1.0 nM and 0.2 nM for ^99mTc-labeled PSMA ligands and the reference compound [^125I]IBA-KuE, respectively. Data are corrected for non-specific binding and normalized to the specific internalization of the reference. Results are given as mean ± SD.

[1] = Lipophilicity (logD7.4), shake-flask method; assay type: physicochemical; conditions: n-octanol/PBS (pH 7.4), n = 8, mean ± SD
Protocol: The lipophilicity of ^99mTc-labeled PSMA ligands, expressed as distribution coefficient (logD7.4), was determined using the shake-flask method. A solution of approximately 1 MBq of radioligand in 1 mL of a 1:1 mixture of PBS (pH = 7.4) and n-octanol (n = 8) was vortexed vigorously for 3 min. After centrifugation at 9000 rpm for 5 min aliquots of both phases (200 µL n-octanol, 50 µL PBS) were collected and the activity was quantified in a γ-counter. logD7.4 values were calculated as decadic logarithm of the activity concentration ratio between the n-octanol phase and the aqueous phase. Data are given as mean ± standard deviation (SD). Binding to human plasma was determined by incubation of radioligands in human plasma (2 nM concentration, 37 °C for 30 min) and subsequent ultrafiltration (250 µL aliquots, 3200 rpm, 40 min) in Centrifree® ultrafiltration devices (Merck Millipore, Cork, Ireland). The fraction bound to human plasma proteins was calculated as the ratio of unfiltered activity and the total activity in the ultrafiltration device. Measurements were performed in three independent experiments, each with two replicates (n = 6, data are given as mean ± SD). All values were corrected for non-specific binding (control experiments in PBS).

For CC(C)(C)[Si](O)(c1ccc(C(=O)NC[C@@H](NC(=O)[C@@H](CCC(=O)O)NC(=O)C(CNCCN)CNCCN)C(=O)N[C@H](CCCCNC(=O)CCC(=O)NCCC[C@@H](NC(=O)CC[C@H](NC(=O)N[C@@H](CCC(=O)O)C(=O)O)C(=O)O)C(=O)O)C(=O)O)cc1)C(C)(C)C.[O]=[99Tc+]=[O] [[^99mTc]Tc-N4-PSMA-12], the “internalization (% IBA-KuE)” value (LNCaP cells; 37°C, n = 3, as percentage of reference [125I]IBA-KuE, mean ± SD) was 311 ± 16%, the “fold higher internalization than [^99mTc]Tc-N4-PSMA-13” value (LNCaP cells; relative to [^99mTc]Tc-N4-PSMA-13) was 1.9 fold and the “fold higher internalization than [^99mTc]Tc-N4-PSMA-21” value (LNCaP cells; relative to [^99mTc]Tc-N4-PSMA-21) was 1.7 fold. For the same molecule, the “fold higher internalization than [^99mTc]Tc-PSMA-I&S” value (LNCaP cells; relative to [^99mTc]Tc-PSMA-I&S) was 1.3 fold and the logD7.4 [1] was -3.35 ± 0.05.
